pIC50, pKd: −log10 of the molar value. Structures can show the parent of a compound that is named as a salt. Where two headings read alike, the source gives them in different places. Marks after values point to notes of the source that are not given here.
Tests used:
[1] = molecular target: human RORγt ligand binding domain (RORγt LBD) (Homo sapiens (Human), UniProt P51449); assay: RORγt ThermoFluor® assay (thermal shift binding)
How it was run: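 Thermal shift with 0.065 mg/mL RORγt LBD and 60 μM 1,8-ANS in 100 mM Hepes pH 7.0, 10 mM NaCl, 2.5 mM GSH, 0.002% Tween-20.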

full-length human RORγt = full-length human RORγt (Homo sapiens (Human), UniProt P51449); assay: RORγt (full-length human) reporter assay, conditions A or B, HEK293T cells; format: cell-based; details: for inhibition at 6 µM: read-out: RORγt (FL) Reporter Assay A or B, % inhibition @ 6 μM; for inhibition at 2 µM: 2 μM compound concentration; for inhibition at 3 µM: 3 μM compound concentration (footnote *); for inhibition at 0.67 µM: 0.67 μM compound concentration (footnote ****)
Sequence of full-length human RORγt (P51449 other isoform, or with tags, fused parts or gaps): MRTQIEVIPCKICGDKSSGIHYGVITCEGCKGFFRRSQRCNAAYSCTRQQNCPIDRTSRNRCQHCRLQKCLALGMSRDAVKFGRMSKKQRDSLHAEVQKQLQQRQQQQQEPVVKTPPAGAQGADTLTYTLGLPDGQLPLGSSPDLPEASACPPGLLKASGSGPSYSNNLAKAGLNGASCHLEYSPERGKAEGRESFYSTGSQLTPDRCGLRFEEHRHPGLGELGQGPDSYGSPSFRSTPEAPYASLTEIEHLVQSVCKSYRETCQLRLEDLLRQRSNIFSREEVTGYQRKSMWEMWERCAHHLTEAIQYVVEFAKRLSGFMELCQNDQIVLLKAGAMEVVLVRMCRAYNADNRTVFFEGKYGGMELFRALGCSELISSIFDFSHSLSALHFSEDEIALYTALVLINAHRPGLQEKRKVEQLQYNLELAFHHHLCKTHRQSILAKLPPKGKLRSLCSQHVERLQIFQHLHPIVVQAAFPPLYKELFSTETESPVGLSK
How it was run: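 Dual-luciferase read-out was taken after an overnight (16–20 h) compound exposure. Firefly data were scaled between DMSO-only and saturating reference compound, Renilla-normalized, then plotted against concentration for IC50.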

[2] = read-out: ThermoFluor® Assay, Kd
[3] = RORγt (FL) Reporter Assay A or B, IC50, HEK293T cells
[4] = HEK-293T, read-out: RORγt (FL) Reporter Assay A or B, % inhibition
[5] = HEK-293T, 6 μM compound concentration

Sequence of human RORγt ligand binding domain (RORγt LBD) (P51449 other isoform, or with tags, fused parts or gaps): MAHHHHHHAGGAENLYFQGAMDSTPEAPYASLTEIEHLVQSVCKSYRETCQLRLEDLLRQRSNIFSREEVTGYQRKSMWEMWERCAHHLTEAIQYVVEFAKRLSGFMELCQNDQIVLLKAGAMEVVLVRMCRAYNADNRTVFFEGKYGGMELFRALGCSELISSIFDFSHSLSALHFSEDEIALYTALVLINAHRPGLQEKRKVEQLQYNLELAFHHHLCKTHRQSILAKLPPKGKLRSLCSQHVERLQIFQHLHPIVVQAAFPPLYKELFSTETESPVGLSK

Row | Compound | pKd [1, 2] | pIC50 (full-length human RORγt; [3]) | pKd ([1]; ThermoFluor® Assay, Kd) | further results
1 | CCn1nc(C(=O)NC[C@H]2CC[C@H](S(C)(=O)=O)CC2)c(Cl)c1-c1ccc(CC(C)(C)CC(F)(F)F)cc1OC(F)F [Example 89, 4-Chloro-5-(2-(difluoromethoxy)-4-(4,4,4-trifluoro-2,2-dimethylbutyl)phenyl)-1-ethyl-N-(((1r,4r)-4-(methylsulfonyl)cyclohexyl)methyl)-1H-pyrazole-3-carboxamide] | 9.62 | 8.27 |  | inhibition at […] (full-length human RORγt; HEK-293T, 0.33 μM compound concentration (footnote *****), read-out: RORγt (FL) Reporter Assay A or B, % inhibition): 98%
2 | CCn1nc(C(=O)NC[C@]2(O)CC[C@@H](S(C)(=O)=O)CC2)c(Cl)c1-c1ccc(N[C@H](C)C(F)(F)F)cc1 [Example 195, 4-Chloro-1-ethyl-N-(((1s,4S)-1-hydroxy-4-(methylsulfonyl)cyclohexyl)methyl)-5-(4-(((R)-1,1,1-trifluoropropan-2-yl)amino)phenyl)-1H-pyrazole-3-carboxamide] | 7.28 | 6.52 |  | inhibition at 6 µM (full-length human RORγt; HEK-293T): 96%
3 | CCn1nc(C(=O)NC[C@]2(O)CC[C@@H](S(C)(=O)=O)CC2)c(Cl)c1-c1ccc(CCCC(F)(F)F)cc1OC(F)F [Example 77, 4-Chloro-5-(2-(difluoromethoxy)-4-(4,4,4-trifluorobutyl)phenyl)-1-ethyl-N-(((1s,4s)-1-hydroxy-4-(methylsulfonyl)cyclohexyl)methyl)-1H-pyrazole-3-carboxamide] | 8.92 | 8.25 |  | inhibition at 2 µM (full-length human RORγt; [4]): 96%
4 | CCn1nc(C(=O)NC[C@H]2CC[C@@H](S(C)(=O)=O)CN2)c(Cl)c1-c1ccc(CC(C)(C)C(F)(F)F)cc1OC(F)F (stereo in doubt) [Example 11, 4-Chloro-5-(2-(difluoromethoxy)-4-(3,3,3-trifluoro-2,2-dimethylpropyl)phenyl)-1-ethyl-N-(((2RS,5RS)-5-(methylsulfonyl)piperidin-2-yl)methyl)-1H-pyrazole-3-carboxamide Hydrobromide] |  | 6.72 | 7.46 | inhibition at 3 µM (full-length human RORγt; [4]): 100%
5 | Cn1nc(C(=O)NC[C@]2(O)CC[C@@H](S(C)(=O)=O)CC2)c(Cl)c1-c1ccc(CC(C)(C)C(F)(F)F)cc1OC(F)F [Example 154, 4-Chloro-5-(2-(difluoromethoxy)-4-(3,3,3-trifluoro-2,2-dimethylpropyl)phenyl)-N-(((1s,4s)-1-hydroxy-4-(methylsulfonyl)cyclohexyl)methyl)-1-methyl-1H-pyrazole-3-carboxamide] | 9.10 | 8.35 |  | inhibition at 0.67 µM (full-length human RORγt; [4]): 91%
6 | CCn1nc(C(=O)NC[C@H]2CC[C@H](S(C)(=O)=O)CC2)c(C)c1-c1ccc(N[C@H](C)C(F)(F)F)cc1OC [Example 228, 1-Ethyl-5-(2-methoxy-4-(((R)-1,1,1-trifluoropropan-2-yl)amino)phenyl)-4-methyl-N-(((1r,4R)-4-(methylsulfonyl)cyclohexyl)methyl)-1H-pyrazole-3-carboxamide] | 7.92 | 7.54 |  | inhibition at 6 µM (full-length human RORγt; [5]): 99%
7 | CCn1nc(C(=O)NC[C@H]2CC[C@H](S(C)(=O)=O)CC2)c(Cl)c1-c1ccc(CCC(C)C)cc1OC [Example 74, 4-Chloro-1-ethyl-5-(4-isopentyl-2-methoxyphenyl)-N-(((1r,4r)-4-(methylsulfonyl)cyclohexyl)methyl)-1H-pyrazole-3-carboxamide] | 9.48 | 7.42 |  | inhibition at 0.67 µM (full-length human RORγt; [4]): 50%
8 | CCn1nc(C(=O)NC[C@]2(O)CC[C@@H](S(C)(=O)=O)C[C@H]2N)c(Cl)c1-c1ccc(CC(C)(C)C(F)(F)F)cc1OC(F)F (single isomer, unassigned) [Example 6, N-(((1R*,2R*,4R*)-2-Amino-1-hydroxy-4-(methylsulfonyl)cyclohexyl)methyl)-4-chloro-5-(2-(difluoromethoxy)-4-(3,3,3-trifluoro-2,2-dimethylpropyl)phenyl)-1-ethyl-1H-pyrazole-3-carboxamide Hydrobromide] |  | 7.54 | 8.62 | inhibition at 3 µM (full-length human RORγt; [4]): 117%
9 | CCOC(=O)[C@]1(CNC(=O)c2nn(CC)c(-c3ccc(N[C@H](C)C(F)(F)F)cc3OC)c2Cl)CC[C@@H](S(C)(=O)=O)CC1 (relative stereo) [Example 95, Ethyl (1r*,4R*)-1-((4-chloro-1-ethyl-5-(2-methoxy-4-(((R)-1,1,1-trifluoropropan-2-yl)amino)phenyl)-1H-pyrazole-3-carboxamido)methyl)-4-(methylsulfonyl)cyclohexane-1-carboxylate] |  | 6.42 | 6.96 | inhibition at 2 µM (full-length human RORγt; [4]): 76%
10 | CCn1nc(C(=O)NC[C@H]2CC[C@H](S(C)(=O)=O)CC2)c(C#N)c1-c1ccc(CCC(F)(F)F)cc1OC [Example 125, 4-Cyano-1-ethyl-5-(2-methoxy-4-(3,3,3-trifluoropropyl)phenyl)-N-(((1r,4r)-4-(methylsulfonyl)cyclohexyl)methyl)-1H-pyrazole-3-carboxamide] | 7.36 | 6.64 |  | inhibition at 6 µM (full-length human RORγt; HEK-293T): 85%

The next lines start with results.

Row | pKd [1, 2] | pIC50 (full-length human RORγt; [3]) | pKd ([1]; ThermoFluor® Assay, Kd) | Compound | further results
11 | 8.15 | 7.51 |  | CCc1cc(N[C@H](C)C(F)(F)F)ccc1-c1c(Cl)c(C(=O)NC[C@H]2CC[C@H](S(C)(=O)=O)CC2)nn1CC [Example 206, 4-Chloro-1-ethyl-5-(2-ethyl-4-(((R)-1,1,1-trifluoropropan-2-yl)amino)phenyl)-N-(((1r,4R)-4-(methylsulfonyl)cyclohexyl)methyl)-1H-pyrazole-3-carboxamide] | inhibition at 2 µM (full-length human RORγt; [4]): 100%
12 | 7.77 |  |  | CCn1nc(C(=O)NC[C@]2(O)CC[C@@H](S(C)(=O)=O)CC2)c(C(F)(F)F)c1-c1ccc(N[C@H](C)C(F)(F)F)cc1OC [Example 217, 1-Ethyl-N-(((1s,4S)-1-hydroxy-4-(methylsulfonyl)cyclohexyl)methyl)-5-(2-methoxy-4-(((R)-1,1,1-trifluoropropan-2-yl)amino)phenyl)-4-(trifluoromethyl)-1H-pyrazole-3-carboxamide] | RORγt (FL) Reporter Assay A or B, % inhibition (full-length human RORγt; 1 μM compound concentration (footnote ***)): 104*** %; pIC50 (full-length human RORγt; HEK293T cells, read-out: RORγt (FL) Reporter Assay A or B, IC50): 7.89
13 |  | < 5.22 | 4.60 | CCn1nc(C(=O)NC[C@]2(C(=O)O)CC[C@H](S(C)(=O)=O)CC2)c(Cl)c1-c1ccc(N[C@H](C)C(F)(F)F)cc1OC (relative stereo) [Example 96, (1r*,4R*)-1-((4-Chloro-1-ethyl-5-(2-methoxy-4-(((R)-1,1,1-trifluoropropan-2-yl)amino)phenyl)-1H-pyrazole-3-carboxamido)methyl)-4-(methylsulfonyl)cyclohexane-1-carboxylic Acid] | inhibition at 6 µM (full-length human RORγt; [5]): -10%
14 | 7.89 | 7.11 |  | COc1cc(CC(C)C(F)(F)F)ccc1-c1c(Cl)c(C(=O)NC[C@H]2CC[C@H](S(C)(=O)=O)CC2)nn1CCO (stereo partly drawn) [Example 200, 4-Chloro-1-(2-hydroxyethyl)-5-(2-methoxy-4-(3,3,3-trifluoro-2-methylpropyl)phenyl)-N-(((1r,4r)-4-(methylsulfonyl)cyclohexyl)methyl)-1H-pyrazole-3-carboxamide] | inhibition at 2 µM (full-length human RORγt; [4]): 96%
15 |  | 8.32 | 8.70 | CCn1nc(C(=O)NC[C@]2(O)CC[C@@H](S(C)(=O)=O)C[C@H]2O)c(Cl)c1-c1ccc(C[C@@H](C)C(F)(F)F)cc1OC(F)F (stereo in doubt) [Example 137, 4-Chloro-5-(2-(difluoromethoxy)-4-((R*)-3,3,3-trifluoro-2-methylpropyl)phenyl)-N-(((1R*,2R*,4R*)-1,2-dihydroxy-4-(methylsulfonyl)cyclohexyl)methyl)-1-ethyl-1H-pyrazole-3-carboxamide] | inhibition at 3 µM (full-length human RORγt; [4]): 102%

From US10975037B2 (priority 2018, dated 2021)
